Measured values reported in US8809368B2, “Compounds affecting gap junction activity” (Kansas State University Research Foundation, priority 2006, dated 2014).

Experiments:
Assay type in all cases: cell-based, human
Cx43 = experiment: Western blot of Cx43 and phosphorylated Cx43 in T47D cells; conditions: 10, 100, 200 and 500 nM, 24 hours
Description: T47D cells were dosed with PQ1 for 24 hours. The Western blot analysis was performed as described in Materials and Methods. Whole cell extract was analyzed for Cx 43, Cx32, and Cx26. Experiment was performed at least three times.
Furthermore, whole cell extract of PQ1 treatment was analyzed for the changes in gap junctional proteins, connexins. Cells were treated with 10, 100, 200, and 500 nM PQ1 for 24 hours. Western blot analysis was performed against Cx26, Cx32, and Cx43 (FIG. 17). […] Anti-tubulin was used as a loading control.
Western Blot Analysis. Cells were grown in serum supplemented RPMI media until they were 90% confluent in 75 cm^2 flasks. Cells were kept in starving media containing phenol red-free DMEM with 5% charcoal dextran stripped serum, overnight. Cells were dosed with 0, 10, 100, 200 and 500 nM of PQ1 for 24 hours. Cells were washed three times with cold PBS and then were harvested using lysis buffer (20 mM Tris pH 7.5, 0.5 mM EDTA, 0.5 mM EGTA, 0.5% Triton X-100) with 1:1000 dilution of protease inhibitors (Sigma-Aldrich, Saint Louis, Mo.). Cell lysate was sonicated and centrifuged at 13,000 rpm for 30 minutes at 4° C. […] Western blots were detected by enhanced chemiluminescence detection reagents (Pierce, Rockford, Ill., USA).

T47D cells [1] = experiment: MTT assay, cell proliferation and viability, T47D cells; conditions: 200 nM, 24 hours
Description: (§1) T47D breast cancer cells were treated with various concentrations of PQ1 for 24 hours. MTT assay was performed with adherent cell cultures using a culture medium free of phenol red and of serum. Solution containing MTT was metabolized by the cells (incubation period 3 hours). After solubilization of the MTT crystals with the solubilization solution MTT, the amount of dye was measured spectrophotometrically at 540 nm.
(§2) MTT assay: This assay is done to measure cell proliferation and viability. Yellow MTT (3-(4,5-Dimethylthiazol-2-yl)-2,5-diphenyltetrazolium bromide, a tetrazole) is reduced to purple crystals, formazan in the mitochondria of living cells. A solubilization solution is added to dissolve the insoluble purple formazan product into a colored solution. The absorbance of this colored solution can be measured by a spectrophotometer. T47 D cells (20,000) were grown in 96-well plate and dosed with 10, 100, 200, 500 nM of PQ1 compound in 100 μl of complete media for 24 hours. MTT (20 μl) was added to the cells and purple formazan crystals were observed after 90 minutes. A solubilization solution (0.35 N HCl) was added to dissolve the formazan and the absorbance was measured at 595 nm wavelength with a background wavelength 690 nm by a spectrophotometer.
(§3) The cytotoxicity of PQ1 in MEC and T47D cells using MTT assay was also determined. Cells were treated with 10, 100, 200, and 500 nM PQ1 for 24 hours. MTT assay was performed according to the manufacture's recommendations. A 200 nM PQ1 has 67% cell viability compared to controls (FIG. 16). Treatments of 100 and 200 nM PQ1 have 95% and 103% MEC cell viability compared to control. However, both MEC and T47D cells decrease cell viability to 50% and 65% at 1 μM PQ1, respectively. Thus, 100-200 nM of PQ1 is sufficient to enhance GJIC activity.
(§4) MTT assay. […] After solubilization of the MTT crystals with the solubilization solution MTT, the amount of dye will be measured spectrophotometrically at 540 nm.

[2] = as above; conditions: human, T47D breast cancer cells
Description: as §1, §2, §3, §4

T47D cells [3] = experiment: Electron microscopy of PQ1-treated cells; conditions: PQ1 treatment

SMILES: COc1cc(NCCCN)c2nccc(C)c2c1Oc1cccc(C(F)(F)F)c1.O=C(O)CCC(=O)O [PQ1, 6-Methoxy-8-[(3-aminopropyl)amino]-4-methyl-5-(3-trifluoromethylphenyloxy) quinoline succinic acid]
- Cx43 expression (Cx43): no effect
- decrease in cell proliferation (T47D cells [1]): 40%
- viability at 24 h, 0.2 µM ([2]; 200 nM, 24 hours, read-out: cell viability compared to controls): 67%
- viability at 24 h, 1 µM ([2]; 1 μM): 65%
- mitochondria by electron microscopy (T47D cells [3]): Mitochondrial damage
